The values that follow come from publication PMC8230073, “The Role of Anthocyanins, Deoxyanthocyanins and Pyranoanthocyanins on the Modulation of Tyrosinase Activity: An In Vitro and In Silico Approach” (International Journal of Molecular Sciences, 2021).

Like-named read-outs stand apart in the source and are kept apart here.

As usually defined, the IC50 is the concentration needed to halve the response being measured. The term inhibition denotes the change of the read-out against control, counted positive when it falls. What is called Ki is the dissociation constant of the complex between target and ligand, obtained from inhibition or displacement. A lower Ki goes with higher affinity. Usually Vmax stands for the rate approached at saturating substrate.

Series [1] deals with T1, mushroom tyrosinase (Agaricus bisporus, UniProt C7FF04).
T1 construct: purchased Sigma Aldrich T3824-250 KU
Nature of the series: Mushroom tyrosinase inhibition assay (L-DOPA oxidation to dopachrome). In kind it is biochemical. As for the experimental part: Both were dissolved in 20 mM phosphate buffer solution, pH 6.8. First, 20 µL from a freshly prepared stock solution of mushroom tyrosinase (270 U/mL) and 75 µL of test compounds stock solutions (20 mM PBS, pH 6.8) were mixed and pre-incubated at 37 °C for 15 min. Then, 30 µL of 6 mM L-DOPA was added to the reaction mixture, followed by an incubation of 20 min at 37 °C. During this reaction, L-DOPA is converted to dopachrome (a precursor of melanin), visually detected by the change of color from colorless to orange/brown, resulting in an absorbance increase, recorded spectrophotometrically at 475 nm on a Flex Station 3 Multi-Mode Microplate Reader (Molecular Devices). The inhibition rate was calculated as follows:(1) % Tyrosinase inhibition=(1−A−B/C−D)×100 where A and B represent the final and initial optical densities of the reaction in the presence of the tested compounds, while C and D represent the final and initial optical densities of the reaction in their absence, respectively. […] Experiments were carried out in triplicate and repeated at least 3 times.

Series [2] has as its target T1, mushroom tyrosinase. Nature of the series: Kinetic analysis of tyrosinase inhibition. In kind it is biochemical. The text has this: GraphPad Prism 8.2.1 was used to fit the experimental data to these four models, all of them compared with each other. Akaike’s Information Criteria (AICc) approach was used to compare the fit of competitive, uncompetitive, and noncompetitive models, while extra sum-of-squares F test was used to compare the mixed model with the remaining three models, as they are considered to be special cases of the mixed model general equation.
Additionally, the mixed model fitting includes an extra parameter, the alpha (α) value, which represents a useful quantitative indicator of the mechanism of inhibition.
Initial velocity of the enzymatic reaction, V0, was determined from the slope of the curve at the initial phase of the reaction, in the presence of increasing concentrations of each compound (25–100 μM) and L-dopa (0.10–1.0 mM) and then plotted as a function of the corresponding substrate concentration, [S]. GraphPad Prism 8.2.1 program was used to fit the obtained data into the Michaelis–Menten model and to determine the kinetic parameters Vmax and KM (maximal reaction velocity and Michaelis–Menten constant, respectively).

The conditions of series [3]: pH 7.4, cited from earlier work; for fraction in quinoidal base form: 7-A^− and 8-A, ref [20],[22].
Setting [4] is: 50 µM compound, substrate L-DOPA, pH 6.8, 37 °C, mean ± SEM, read-out: % mTYR Inhibition at 50 µM.

T1 sequence (C7FF04 1-392): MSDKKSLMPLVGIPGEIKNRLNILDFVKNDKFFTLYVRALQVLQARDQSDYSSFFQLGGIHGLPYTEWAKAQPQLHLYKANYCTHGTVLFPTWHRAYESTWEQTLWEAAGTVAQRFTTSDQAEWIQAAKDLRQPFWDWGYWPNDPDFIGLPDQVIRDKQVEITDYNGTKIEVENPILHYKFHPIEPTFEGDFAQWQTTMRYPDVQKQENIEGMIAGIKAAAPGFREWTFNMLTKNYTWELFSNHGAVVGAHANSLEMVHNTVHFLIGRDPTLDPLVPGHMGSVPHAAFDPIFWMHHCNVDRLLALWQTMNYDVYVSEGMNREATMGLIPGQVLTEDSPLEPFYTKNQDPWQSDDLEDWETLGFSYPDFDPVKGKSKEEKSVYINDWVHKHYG

`Oc1cc(O)c2ccc(-c3ccc(O)c(O)c3)[o+]c2c1` [Compound 1, luteolinidin] gave an IC50 against mushroom tyrosinase [1] of 39.2 ± 2.71 µM. The inhibition at 50 µM at mushroom tyrosinase [1] (pH 6.8, read-out: % mTYR Inhibition at 50 µM) amounted to 58.5 ± 2.08%. Also, the Ki on mushroom tyrosinase [2] came out at 15.1 ± 1.18 µM. The maximum rate (Vmax) is 45.8 µM/min at mushroom tyrosinase [2] (L-DOPA, inhibitor 25 μM); 45.8 µM/min on mushroom tyrosinase [2] (L-DOPA, inhibitor 50 μM); 45.8 µM/min at mushroom tyrosinase [2] (L-DOPA, inhibitor 75 μM); 45.8 µM/min at mushroom tyrosinase [2] (L-DOPA, inhibitor 100 μM). The same molecule displayed a α at mushroom tyrosinase [2] (alpha value from fitting of mixed model equation) of 21.00. Besides, at mushroom tyrosinase [2] (diphenolase activity, L-DOPA, model comparison in GraphPad Prism), the “Inhibition Type” value is listed as “Competitive”.
As to `O=C(O)c1cc2c(O[C@@H]3O[C@H](CO)[C@@H](O)[C@H](O)[C@H]3O)c(-c3ccc(O)c(O)c3)oc3cc(=O)cc(o1)c32` [Compound 5, carboxypyranocyanidin-3-O-glucoside], the inhibition at 50 µM on mushroom tyrosinase [1] (setting [4]) worked out at 22.1 ± 0.962%. Also, the inhibition at 200 µM on mushroom tyrosinase [1] (200 μM compound, L-DOPA oxidation (Figure 3), read-out: inhibition rate at 200 μM) is ~40%. The “fraction under the form A^2−” value in series [3] (ref [20],[21]) is given as ~100%.
For the molecule `Cc1cc2c(O[C@@H]3O[C@H](CO)[C@@H](O)[C@H](O)[C@H]3O)c(-c3ccc(O)c(O)c3)oc3cc(=O)cc(o1)c32` [Compound 7, methylpyranocyanidin-3-O-glucoside], the inhibition at 50 µM at mushroom tyrosinase [1] (setting [4]) stood at 16.2 ± 1.14%. Further, the “fraction in quinoidal base form” value in series [3] is 80%.
Regarding `COc1cc(-c2oc3cc(=O)cc4oc(C)cc(c2O[C@@H]2O[C@H](CO)[C@@H](O)[C@H](O)[C@H]2O)c43)cc(OC)c1O` [Compound 8, methylpyranomalvidin-3-O-glucoside], the inhibition at 50 µM on mushroom tyrosinase [1] (setting [4]) was 9.74 ± 3.36%. The “fraction in quinoidal base form” value in series [3] is on record as 80%.
